Among the data in PMC10751773 (JACS Au, 2023) are Kd values, retold here.

One test addresses piscidin 3 (P3) (Morone chrysops x Morone saxatilis, UniProt P0C006). Description: circular dichroism titration at […] nm, one-site two-state fit. Type of test: binding.
Another test concerns the target piscidin 1 (P1) (Morone saxatilis, UniProt Q8UUG0). The description is as above. Type of test: binding.

piscidin 3 (P3), sequence (P0C006 whole entry): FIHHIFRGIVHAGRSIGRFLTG
piscidin 1 (P1), sequence (Q8UUG0 23-44): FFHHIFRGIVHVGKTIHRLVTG

Usually Kd stands for a measure of binding affinity in units of concentration. Read a high Kd as lower affinity. As for `CCCCCCOC(=O)CCCCCCC/C=C\CCCCCC[C@H](C)O[C@@H]1O[C@H](CO)[C@@H](O)[C@H](O)[C@H]1O[C@@H]1O[C@H](CO)[C@@H](O)[C@H](O)[C@H]1O` [SL-HE], the results for the Kd at piscidin 3 (P3) and at piscidin 1 (P1) were 391.5 ± 1.5 µM and 206 ± 5 µM, respectively.
